From patent US20230271969A1, “NITROGEN-CONTAINING FUSED RING DERIVATIVE INHIBITOR, PREPARATION METHOD THEREFOR AND USE THEREOF” (Shanghai Hansoh Biomedical Co., Ltd., priority 2020, published 2023)

Test system: luteinizing hormone (LH) content in plasma
Assay: Luteinizing hormone (LH) content in plasma of bilateral ovariectomy (OVX) rats
Type: in vivo
Conditions: oral 30 mg/kg, plasma LH 0-8 h
Excerpt: Test Example 5. Effect of the Compounds of the Present Invention on Luteindzing Hormone (LH) Content in Plasma of Bilateral Ovariectomy (OVX) Rats
The objective of this test example was to determine the effect of the compounds on luteinizing hormone (LH) in plasma of bilateral ovarnectomy (OVX) rats.
10-Week-old female bilateral ovariectomy SD rats were purchased from Beijing Vital River Laboratory Animal Technology Co., Ltd. The animals were housed in a SPF grade animal facility with 5 SD rats per cage. The cages, bedding, feed and water were disinfected at high temperatures before use. All animals had free access to food and water.
Drug administration by groups: 10-Week-old female SD rats were subjected to bilateral ovariectomy and used in experiments after 3 weeks. Each SD rat was fasted overnight before the experiment, and then randomly divided into groups (3 rats per group) before the drug administration. Different test compounds were administered orally to each drug administration group at a dose of 30 mg/kg and a volume of 10 mL/kg.
Sample collection: 0.2-0.3 mL of whole blood of the SD rats in each group was collected at 0, 0.5, 1, 2, 4, 8 hours before and after the drug administration, and placed in EDTA-K2 tubes. The tubes were inverted and mixed well, and centrifuged at 4° C. at 5,000 rpm for 5 min. Then the plasma was separated and stored in an ultra-low temperature freezer (−80±10° C.).
Sample detection: All reagents, samples and ELISA plates were equilibrated at room temperature (20-25° C.) for at least 30 min. The sample was thawed, vortexed and centrifuged for use. The standard curve was prepared with Assay buffer C according to the concentration sequence of 10, 5, 2.5, 1.25, 0.625, 0.313 and 0. The sample was diluted by two folds with Sample dilution buffer G and left to stand at room temperature for 10 min. […] The OD values of each well was read at a wavelength of 450 nm with a microplate reader.
The standard curve was plotted by using Graphpad, and the concentration of the sample was calculated. […]

For `C[C@@H]1c2nnc(-c3nc4cnc(Cl)cc4s3)n2CCN1C(=O)c1ccc(F)cc1` [Example 37, (R)-(3-(6-Chlorothiazolo[4,5-c]pyridin-2-yl)-8-methyl-5,6-dihydro-[1,2,4]triazolo[4,3-a]pyrazin-7(8H)-yl)(4-fluorophenyl)methanone], the “ΣAUC(ΔLH/LH · h, Mean ± SD)” value was −0.52 ± 2.24 ΔLH/LH · h.
